Experimental data: patent publication US11021493B2, “1,4-thiazine dioxide and 1,2,4-thiadiazine dioxide derivatives as beta-secretase inhibitors and methods of use” (AMGEN INC., priority 2016, dated 2021)

Experiments:
[1] = cited from earlier work
[2] = tested on: BACE; conditions: nonhuman primates; cited from earlier work
[3] = higher compound dose given for three months; cited from earlier work
[4] = target: T1, BACE1 (Homo sapiens (Human), UniProt P56817); assay: In vitro enzymatic BACE1 FRET assay; type: biochemical; conditions: read-out: BACE1 Enzyme IC50
Target sequence in this assay (P56817 46-501): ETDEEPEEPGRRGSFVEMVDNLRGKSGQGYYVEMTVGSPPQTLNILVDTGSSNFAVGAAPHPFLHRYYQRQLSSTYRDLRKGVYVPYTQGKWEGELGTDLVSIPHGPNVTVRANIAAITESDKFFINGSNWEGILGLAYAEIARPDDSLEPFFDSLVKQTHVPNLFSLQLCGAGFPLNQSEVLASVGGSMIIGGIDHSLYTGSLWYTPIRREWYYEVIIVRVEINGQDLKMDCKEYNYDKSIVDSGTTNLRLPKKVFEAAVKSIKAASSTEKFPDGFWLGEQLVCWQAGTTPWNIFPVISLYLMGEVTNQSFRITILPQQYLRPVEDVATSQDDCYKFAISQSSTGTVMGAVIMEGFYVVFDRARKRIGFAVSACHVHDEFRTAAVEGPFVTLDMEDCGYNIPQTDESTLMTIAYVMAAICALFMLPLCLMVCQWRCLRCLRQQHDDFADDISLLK

[5] = target: T1, BACE1; assay: In vitro BACE1 cell-based assay (Aβ40 in conditioned medium of cells stably expressing APP, HTRF); conditions: Aβ40 in conditioned media after 24 h incubation
Target sequence in this assay (P56817 46-501, species assumed): as the sequence (P56817 46-501) above

[6] = target: human recombinant BACE2 (Homo sapiens (Human), UniProt Q9Y5Z0); assay: In vitro enzymatic BACE2 FRET assay; type: biochemical; conditions: read-out: BACE2 Enzyme IC50
[7] = target: Cathepsin D (CatD) (Homo sapiens (Human), UniProt P07339); assay: In vitro enzymatic Cathepsin D (CatD) FRET assay; type: biochemical; conditions: read-out: Cat D Enzyme IC50
[8] = target: β-secretase (Rattus norvegicus (Rat), UniProt P56819); assay: In vivo inhibition of β-secretase: Aβ reduction in rat CSF and brain
Sequence of β-secretase (P56819 46-501): as the sequence (P56817 46-501) above, with G82S, V162I, L165I, S180T, V182A, I340V, L393A, Q443H counted along it
Description: In Vivo Inhibition of β-Secretase
Animals to be used in this experiment can be wild type, transgenic, or gene knockout animals.
A separate group of animals receive 2% hydroxypropyl methylcellulose, 1% Tween80 alone, containing no test compound, and serve as a vehicle-control group. At the end of the test period, animals are sacrificed and brain tissues, plasma or cerebrospinal fluid are collected. […] Homogenates are centrifuged at 355,000 g, 4° C. for 30 minutes. CSF or brain supernatants are then analyzed for the presence of Aβ by specific sandwich ELISA assays based on ECL (Electrochemiluminescence) technology. For example, rat Aβ40 is measured using biotinylated-4G8 (Signet) as a capture antibody and Fab40 (an in-house antibody specific to the C-terminal of Aβ40) as a detection antibody.

Sequence of Cathepsin D (CatD) (P07339 65-412, species assumed): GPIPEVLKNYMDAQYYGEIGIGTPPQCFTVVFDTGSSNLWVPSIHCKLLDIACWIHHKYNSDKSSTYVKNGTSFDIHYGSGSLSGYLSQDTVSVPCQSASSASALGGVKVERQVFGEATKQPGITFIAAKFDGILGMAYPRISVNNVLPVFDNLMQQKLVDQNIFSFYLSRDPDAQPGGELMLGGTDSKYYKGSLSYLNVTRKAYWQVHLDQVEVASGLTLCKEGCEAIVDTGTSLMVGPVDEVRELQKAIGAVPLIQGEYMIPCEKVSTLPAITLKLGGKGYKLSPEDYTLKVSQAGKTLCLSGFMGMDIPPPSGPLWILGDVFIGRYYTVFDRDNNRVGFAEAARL
Sequence of human recombinant BACE2 (Q9Y5Z0 63-518): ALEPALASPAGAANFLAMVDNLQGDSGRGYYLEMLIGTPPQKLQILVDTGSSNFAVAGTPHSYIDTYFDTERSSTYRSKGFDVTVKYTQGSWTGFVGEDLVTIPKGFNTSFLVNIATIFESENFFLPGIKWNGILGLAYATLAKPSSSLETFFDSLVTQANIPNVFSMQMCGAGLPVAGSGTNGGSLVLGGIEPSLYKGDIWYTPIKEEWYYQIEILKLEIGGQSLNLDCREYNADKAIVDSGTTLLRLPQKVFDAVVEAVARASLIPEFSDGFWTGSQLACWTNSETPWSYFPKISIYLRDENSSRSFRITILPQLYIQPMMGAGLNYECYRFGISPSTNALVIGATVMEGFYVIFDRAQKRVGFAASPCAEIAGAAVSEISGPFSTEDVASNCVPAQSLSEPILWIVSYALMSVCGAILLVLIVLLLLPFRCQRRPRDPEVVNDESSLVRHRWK

Row | IC50 [4] [nM] | IC50 [5] [nM] | IC50 [6] [nM] | IC50 [7] [nM] | % Aβ reduction in rat CSF at 10 mpk [8] [%] | % Aβ reduction in rat brain at 10 mpk [8] [%] | Structure (SMILES) | further results
1 | – | – | – | – | – | – | CN1C(=N)N[C@](C)(c2cc(NC(=O)c3ccc(F)cn3)ccc2F)CS1(=O)=O [MK-8931] | safety profile ([1]; phase I clinical trials): no immediately noticeable side effects
2 | – | – | – | – | – | – | C[C@H]1OC[C@]2(c3cc(NC(=O)c4cnc(C(F)F)cn4)ccc3F)N=C(N)SC[C@H]12 [Example E2609] | Aβ peptide levels in the CSF and plasma [2]: significant reduction; clinical safety ([1]; repeated doses up to 200 mg, phase I clinical trial): did not show clinical significant safety concerns
3 | – | – | – | – | – | – | C[C@@]1(c2cc(-c3cncnc3)c(F)cc2F)CCSC(N)=N1 [LY 2811376] | eye toxicity [3]: damaged the pigment epithelium of the rat's eye
4 | 5 | 9 | 179 | 42700 | 65 | 61 | C#CCOc1cnc(/C(F)=C/c2cc(F)c(F)c([C@]3(C)CS(=O)(=O)C(C)(C)C(N)=N3)c2)cn1 [Example 204, (R,Z)-5-amino-3-(2,3-difluoro-5-(2-fluoro-2-(5-(prop-2-yn-1-yloxy)pyrazin-2-yl)vinyl)phenyl)-3,6,6-trimethyl-3,6-dihydro-2H-1,4-thiazine 1,1-dioxide] | –
5 | 4 | 4 | 90 | 40900 | 45 | 26 | CN1C(N)=N[C@](C)(c2cc(/C=C(\F)c3cnc(OCc4ncco4)cn3)cc(F)c2F)CS1(=O)=O [Example 166, (R,Z)-3-amino-5-(2,3-difluoro-5-(2-fluoro-2-(5-(oxazol-2-ylmethoxy)pyrazin-2-yl)vinyl)phenyl)-2,5-dimethyl-5,6-dihydro-2H-1,2,4-thiadiazine 1,1-dioxide] | –
